Test results from ChEMBL document CHEMBL5726187, “Pyrimido-pyridazinone compounds and methods of use thereof” (2019).
pIC50: −log10 of the molar value.

Tests used:
[1] = target: Tyrosine-protein kinase SYK (Homo sapiens, UniProt P43405); assay: Inhibition of Enzymatic Syk Kinase Activity: 2.5 μL of 10% DMSO or compound in 10% DMSO was added to the wells in a 96 well V-bottom plate. Optimized concentration of in-house Syk enzyme (different batches of Syk (356-635) kinase domain) were used at optimized concentrations) ranging from 0.035 ng to 7.5 ng/reaction diluted in assay buffer was added to a total volume of 12.5 μL). Compound and protein were incubated for 30 minutes at room temperature on a plate shaker. Ten μL of a substrate mix containing 100 μM ATP (0.25 μL), γ-P32-ATP (0.1 μL; 10 μCi/μL), pG4T (0.25 μL; 10 mg/mL) and 1× assay buffer (9.4 μL) was added to all the wells. Samples were incubated at 30° C. for 10 minutes after mixing. The reaction was stopped by the addition of 8N HCl (13 μL) containing 100 mM ATP. Thirty μL of sample was transferred to the center of a 2×2 cm2 Whatman P81 chromatography paper. After allowing the sample to dry for one minute, the assay squares were washed 3 times for 5 minutes each in ortho-phosphoric acid (0.5%) and once in acetone. Assay squares were dried for 15 minutes in a 30° C. oven and transferred to 96 well optiplate. Microscint-O reagent (100 μL, Perkin Elmer) was added to each well, the plate was sealed with Topseal-A microplates and incubated for 10 minutes at room temperature at very low speed on rocker and the plate was read in the Topcount NXL instrument.
[2] = target: Tyrosine-protein kinase JAK2 (Homo sapiens, UniProt O60674); assay: Inhibition of Enzymatic JAK2 Kinase Activity: Two μL of 10% DMSO in blank, substrate control and positive control wells and 2 μL of test compound in test wells was added. Thirteen μL of assay buffer in blank and substrate control wells and 13 μL of Enzyme buffer mix in positive and test wells was added. The reaction mixture was incubated for 30 minutes at RT on a plate shaker. Ultra Light-pGT substrate (5 μL) [poly Glu-Tyr (4:1) labeled with U Light TM dye, a tyrosine kinase substrate] and ATP mix was added to all wells. The reaction plate was incubated for 60 minutes at RT on a plate shaker. The reaction was stopped by adding 40 mM EDTA (10 μL) in buffer. Ten μL of antibody was added to all the wells.
Chain of Tyrosine-protein kinase JAK2 (O60674 whole entry): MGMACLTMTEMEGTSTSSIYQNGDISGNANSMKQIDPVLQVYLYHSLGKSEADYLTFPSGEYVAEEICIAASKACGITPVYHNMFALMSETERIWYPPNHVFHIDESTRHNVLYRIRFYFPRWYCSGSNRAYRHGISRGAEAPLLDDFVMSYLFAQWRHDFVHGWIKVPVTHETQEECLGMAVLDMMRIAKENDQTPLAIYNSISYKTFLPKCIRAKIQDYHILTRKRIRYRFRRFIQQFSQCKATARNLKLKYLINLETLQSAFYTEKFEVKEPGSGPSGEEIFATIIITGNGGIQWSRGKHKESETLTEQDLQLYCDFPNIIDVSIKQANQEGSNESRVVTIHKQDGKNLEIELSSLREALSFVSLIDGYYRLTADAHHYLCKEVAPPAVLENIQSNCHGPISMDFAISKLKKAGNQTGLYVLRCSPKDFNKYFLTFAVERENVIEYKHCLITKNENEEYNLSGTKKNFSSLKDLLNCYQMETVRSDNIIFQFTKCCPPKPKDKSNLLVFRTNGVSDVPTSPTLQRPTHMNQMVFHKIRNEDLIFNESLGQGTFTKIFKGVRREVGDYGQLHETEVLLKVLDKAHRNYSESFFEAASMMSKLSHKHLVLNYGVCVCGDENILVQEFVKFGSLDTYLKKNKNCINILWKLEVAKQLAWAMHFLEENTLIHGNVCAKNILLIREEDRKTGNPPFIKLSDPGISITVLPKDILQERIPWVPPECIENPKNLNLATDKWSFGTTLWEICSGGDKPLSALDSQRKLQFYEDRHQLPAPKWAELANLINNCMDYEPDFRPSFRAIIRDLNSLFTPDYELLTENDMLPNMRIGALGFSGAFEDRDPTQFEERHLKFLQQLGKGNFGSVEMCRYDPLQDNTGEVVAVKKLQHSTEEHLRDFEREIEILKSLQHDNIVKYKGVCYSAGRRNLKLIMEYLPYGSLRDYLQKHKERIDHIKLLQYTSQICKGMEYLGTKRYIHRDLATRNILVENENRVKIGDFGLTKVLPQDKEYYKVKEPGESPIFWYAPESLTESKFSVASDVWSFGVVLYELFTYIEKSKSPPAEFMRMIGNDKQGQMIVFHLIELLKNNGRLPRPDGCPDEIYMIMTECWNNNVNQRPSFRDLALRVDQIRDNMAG

Row | SMILES | pIC50 [1] | pIC50 [2]
1 | O=c1[nH]ncc2nc(N3CCCCCC3)nc(Nc3ccc(OCCN4CCCNCC4)cc3)c12 | > 7.30 | > 8.00
2 | COc1cc(Nc2nc(N3CCCCCC3)nc3cn[nH]c(=O)c23)cc(OC)c1 | < 7.00 | –
3 | O=C(O)C1CC12CCC(c1ccc(Nc3nc(N4CCCCC4)nc4cn[nH]c(=O)c34)cc1)CC2 (stereo unspecified) | > 7.30 | > 7.30
4 | CC1CC(C)CN(c2nc(Nc3ccc(N4CCC(CC(=O)O)CC4)cc3)c3c(=O)[nH]ncc3n2)C1 (stereo unspecified) | > 7.30 | > 8.00
5 | O=C(O)C1CC12CCN(c1ccc(Nc3nc(-c4ccc(F)cc4)nc4cn[nH]c(=O)c34)cc1)CC2 (stereo unspecified) | > 7.00 | > 7.30
6 | CC(C)(CO)Oc1ccc(Nc2nc(N3CCC(CC#N)CC3)nc3cn[nH]c(=O)c23)cc1 | > 7.30 | > 7.30
7 | CC(C)(O)C(=O)N1CCN(c2ccc(Nc3nc(N4CCC(CC#N)CC4)nc4cn[nH]c(=O)c34)cn2)CC1 | > 7.30 | > 7.30
8 | N#CCC1CCN(c2nc(Nc3ccc(N4CCC(F)(F)CC4)cc3)c3c(=O)[nH]ncc3n2)CC1 | > 7.30 | > 8.00
9 | CC(C)(C(N)=O)N1CCN(c2ccc(Nc3nc(N4CCCCCC4)nc4cn[nH]c(=O)c34)cc2)CC1 | > 7.30 | > 8.00
10 | O=c1[nH]ncc2nc(N3CCCCCC3)nc(Nc3ccc(OCCN4CCNCC4)cc3)c12 | > 7.30 | –
11 | O=C(O)C1CC12CCC(c1ccc(Nc3nc(NC4CCCCC4)nc4cn[nH]c(=O)c34)cc1)CC2 (stereo unspecified) | > 7.30 | > 7.30
12 | COc1ccc(-c2nc(Nc3ccc(N4CCC5(CC4)CC5C(=O)O)cc3)c3c(=O)[nH]ncc3n2)cc1 (stereo unspecified) | > 7.00 | > 7.00
13 | N#CCC1CCN(c2nc(Nc3ccc(N4CCCC(O)C4)nc3)c3c(=O)[nH]ncc3n2)CC1 (stereo unspecified) | > 7.30 | > 7.30
14 | O=C(O)CN1CCN(c2ccc(Nc3nc(N4CCCCCC4)nc4cn[nH]c(=O)c34)cc2)CC1 | > 8.00 | > 8.00
15 | N#CCC1CCN(c2nc(Nc3ccc(F)cc3)c3c(=O)[nH]ncc3n2)CC1 | < 7.00 | –
16 | O=C1CC2(CCN(c3nc(Nc4ccc(CN5CCNCC5)cc4)c4c(=O)[nH]ncc4n3)CC2)CC(=O)N1 | < 7.00 | –
17 | CN(c1nc(Nc2ccc(N3CCC4(CC3)CC4C(=O)O)cc2)c2c(=O)[nH]ncc2n1)C1CCCCC1 (stereo unspecified) | > 7.30 | > 8.00
18 | CC(C)(C#N)N1CCN(CCOc2ccc(Nc3nc(N4CCCCCC4)nc4cn[nH]c(=O)c34)cc2)CC1 | > 7.30 | > 7.30
19 | CC(C)(Oc1ccc(Nc2nc(N3CCCCCC3)nc3cn[nH]c(=O)c23)cc1)C(=O)O | > 7.30 | > 8.00
20 | O=c1[nH]ncc2nc(N3CCCCC3)nc(Nc3ccc(OCCN4CCCNCC4)cc3)c12 | > 7.30 | > 7.30
